Laboratory results reported in US20160090555A1, “CLEANING AND/OR TREATMENT COMPOSITIONS COMPRISING MALODOR REDUCTION COMPOSITIONS” (The Procter & Gamble Company, priority 2014, published 2016).

Assays:
[1] = Blocker Index (BI), expert graders, isovaleric acid malodorous swatch; parameters: key: Blocker Index, 0–3 scale anchored by reference swatches (0 = clean swatch)
Source text: Blocker materials suitable for use in cleaning and/or treatment compositions of the present invention are chosen for their ability to decrease malodor, while not interfering with perception of a fragrance. Material selection is done by assigning two indices to a test sample material from two reference scales in order to rank odor strengths. The two reference scales are the Fragrance Fidelity Index (FFI) scale and the Blocker Index (BI) scale. The FFI ranks the ability of the test sample material to impart a perceivable odor which could cause interference when combined with another fragrance and the BI ranks the ability of the test sample material to reduce malodor perception. The two methods for assigning the indices to a test sample on the FFI and the BI reference scales are given below.
The first step in the method for assigning a BI to a test sample material on the BI reference scale is to create the BI reference swatches. […] Fabric swatches for this test are white knit polycotton (4 inch×4 inch) swatches from EMC ordered as PC 50/50. The supplier is instructed to strip the swatches first, stripping involves washing twice with a fragrance-free detergent and rinsing three times.
The BI scale contains one clean swatch with no malodor applied. […] These solutions are pipetted to the middle of the swatches. […] After drying for 30 minutes in a vented hood, the swatches are wrapped in aluminum foil to prevent odor contamination to the treated swatch. A clean untreated swatch is also included as the lowest anchor point of reference for malodor strength on the BI scale. The BI reference scale swatches should be used within 0.5 to 12 hours and discarded after 12 hours. The swatches are used as scale anchor points when graders evaluate a test sample(s) and are assigned a Blocker Index (BI) as show in Table 12.
The perfumer/expert grader is asked to rank order swatches according to a scale between 0 and 3.
The reference swatches represent the 0, 1, 2, and 3 BIs on the BI reference scale, Table 12. The expert grader should familiarizes him/herself with the strength of the odor on the BI reference swatches by sniffing each one starting at 0 (the lowest odor strength) and ending at 3 (the highest odor strength). This should be done prior to evaluating the swatch treated with the test material.
To evaluate the BI, the test material is applied to a malodorous swatch to determine how well the test material blocks the malodor. […] After drying the malodorous swatch a known concentration of test material solution, between 1 ppm and 100 ppm is pipetted onto the malodorous swatch. […] It is sometimes necessary to evaluate several levels of the test material between about 1 and about 100 ppm to determine the BI.
At least two perfumers/expert graders are used to assign the BI to the test sample. […] The test sample swatch is assigned a BI at or between numbers on the BI in table.

[2] = Fragrance Fidelity Index (FFI), expert graders, treated fabric swatch against ethyl vanillin reference scale
Source text: Blocker materials suitable for use in cleaning and/or treatment compositions of the present invention are chosen for their ability to decrease malodor, while not interfering with perception of a fragrance. Material selection is done by assigning two indices to a test sample material from two reference scales in order to rank odor strengths. The two reference scales are the Fragrance Fidelity Index (FFI) scale and the Blocker Index (BI) scale. The FFI ranks the ability of the test sample material to impart a perceivable odor which could cause interference when combined with another fragrance and the BI ranks the ability of the test sample material to reduce malodor perception. The two methods for assigning the indices to a test sample on the FFI and the BI reference scales are given below. The first step in the method for assigning an FFI to the test samples on the FFI reference scale is to create the FFI reference swatches. […] Fabric swatches for this test are white knit polycotton (4 inch×4 inch) swatches from EMC ordered as PC 50/50. The supplier is instructed to strip the swatches first, stripping involves washing twice with a fragrance-free detergent and rinsing three times. […] This will create a sensory scale of three swatches with three different odor levels based on the concentration of the solution pipetted onto the swatch. […] A clean untreated swatch is also included as the lowest anchor point of reference for odor strength on the FFI scale. […] The swatches are used as scale anchor points when graders evaluate a test sample(s) and are assigned a Fragrance Fidelity Index (FFI) as show in Table 7. […] This should be done prior to evaluating the test sample material treated swatch. […] At least two perfumers/expert graders are used to assign an FFI grade to a test sample.

[3] = test material at 10 ppm on isovaleric acid malodorous swatch
[4] = test material at 50 ppm on isovaleric acid malodorous swatch

Row | SMILES | BI ([1]; Conc 50 ppm) | FFI ([2]; Conc 50 ppm) | BI ([1]; Conc 10 ppm) | BI [1, 3] | BI [1, 4] | FFI ([2]; Conc 10 ppm) | BI grade of reference swatch, Ave ([1]; 2 μL 0.08% isovaleric acid, all graders (Table 10))
1 | CCCCCCCCCCCC(=O)OCC [Material 391] | 2.2 | 0.3 |  |  |  |  | 
2 | CCCCCCCCCCCCCCCC(=O)OC [Material 109] |  |  | 2.0 |  |  |  | 
3 | CC1(C)CCc2ccc(CCC=O)cc21 |  |  |  | 1.5 | 2.7 |  | 
4 | CC1(C)C2CCC3(C2)C1C(=O)CCC3(C)C (centres unmarked) [Material 1149] | 2.3 | 0.8 | 1.5 |  |  | 0 | 
5 | CCC(O)COC1CCCCC1C(C)(C)C (centres unmarked) [Material 677] | 2.0 | 1.8 | 2.3 |  |  | 0 | 
6 | CCC(=O)OC1CC2C3C=CCC3C1C2(C)C (centres unmarked) [8,8-dimethyl-3a,4,5,6,7,7a-hexahydro-1H-4,7-methanoinden-6-yl propionate] |  |  |  | 1.5 | 2.2 |  | 
7 | CC(=O)OCCCCCCC(C)C [Material 204] | 2.7 | 0 | 2.0 |  |  | 0 | 
8 | CC(C)CC(=O)O [isovaleric acid, reference compound] |  |  |  |  |  |  | 1.0
9 | C=C1CCC2OC2(C)CCC2C1CC2(C)C (centres unmarked) [Material 1148] | 2.3 | 0.5 |  |  |  |  | 
10 | CC1CCC2(C(C)C)CC(C)OC2C1 (centres unmarked) |  |  |  | 2.0 | 2.2 |  | 
11 | CC(CCO)CCc1ccccc1 (centres unmarked) [Material 962] | 1.7 | 0.5 | 2.3 |  |  | 0 | 
12 | CC(=O)OC1CC2CC1C1CC=CC21 (centres unmarked) [Material 281] | 2.0 | 0.5 | 2.0 |  |  | 0 | 
13 | CCOC(=O)OC1C(C)CCC(C)C1C (centres unmarked) [Material 1005] | 2.6 | 0.5 |  |  |  |  | 
14 | CCCCCCCCCCCO [Undecanol] | 2.3 | 0.8 |  |  |  |  | 
15 | COC(=O)OC1CC/C=C\CCC1 (centres unmarked) [Material 1139] | 2.7 | 1.0 | 2.0 |  |  | 0 | 
16 | CC(C)(C)C1CCCCC1 [4-tert-butyl cyclohexane] | 2.0 | 0.3 | 2.0 |  |  | 0 | 
17 | CCCCCCCCCCCCO [Material 174] | 2.3 | 0.5 |  |  |  |  | 
18 | CC1(C)CCc2ccc(CCC=O)cc21 [Material 261] | 1.3 | 1.3 | 1.8 |  |  | 0 | 
19 | O=C1CCC2CCCCC2O1 (centres unmarked) [3,4,4a,5,6,7,8,8a-octahydrochromen-2-one] | 2.0 | 0 | 2.0 |  |  | 0 | 
20 | C=CC(C)=CCC=C(C)C [Material 524] | 2.8 | 0 |  |  |  |  | 
